These results are taken from patent US10709724B2, “Methods of treating mitochondrial dysfunction” (Ecole Polytechnique Federale de Lausanne (EPFL), priority 2011, dated 2020).

The subject of experiment [1] is C2C12 myotubes. In words: Intracellular NAD+ content in C2C12 myotubes treated with PARP inhibitors. Also noted: intracellular NAD+ over time / H2O2-induced NAD+ depletion: dose or concentration left out as unconfirmed. The format is cell-based. Here is the method: Cell Culture, Transfection, Adenoviral Infection and Mitochondrial Characterization. HEK293T, MEF and C2C12 cells were cultured in DMEM (4.5 g/l glucose, 10% FCS). PARP-1^+/+ and PARP-1^−/− MEFs were prepared as described in (Menissier-de Murcia et al., 1997). SIRT1 and MEFs were kindly provided by Fred Alt (Chea et al., 2005). SIRT3 MER were established according to standard techniques from conditional SERT3^−/− mice. (Picard, F., Gehin, M., Annicotte, J., Rocchi, S., Champy, M. F., O'Malley, B. W., Chambon, P., and Auwerx, J. (2002). SRC-1 and TIF2 control energy balance between white and brown adipose tissues. Cell 111, 931-941.) Deletion of the SIRT3 gene was induced via infection with adenovirus encoding for the Cre recombinase. HEK293T cells were transfected using JetPei reagent (Polyplus Transfections, Illkirch, France) according to the manufacturer's instructions. C2C12 cells were differentiated in DMEM (4.5 g/L glucose, 2% horse serum) after reaching confluency for 2 days, followed by 2 days of PJ34 treatment (10 μM). PARP-1 shRNA constructs were described in (Shah et al., 2005). Human PARP-1 and siRNAs were obtained from Dharmacon (Thermo Scientific). The adenovirus encoding for FLAG-HA-PGC-1α, control and SIRT1 shRNAs were a kind gift from Pere Puigserver and were used (MOI=100) in C2C12 myotubes as described (Canto et al., 2009). Mitochondrial charge determination was performed as described (Bai et al., 2001) and DNA strand breaks were quantified by TUNEL assays according to the manufacturer's instructions (Millipore).
NAD^+ NAM Determination. NAD^+ levels in cultured cells were determined using a commercial kit (Enzychrom™, BioAssays Systems, CA). For tissue samples NAD^+ and NAM levels were determined as described in (Sauve et al., 2005). In brief, to a weighed aliquot of frozen pulverized tissue we added as standards, ^18O-NAD^+ (typically 2.00 nmol) and ^18O-NAM (typically 2.00 nmol). 70 L of ice-cold 7% perchloric acid was then added and the sample was vortexed and sonicated three times, then centrifuged. Clear supernatant was removed and neutralized by additions of 3 M NaOH and 1 M phosphate buffer (pH=9), then centrifuged. Clear supernatant was injected onto HPLC C-18 column with 20 mM ammonium acetate eluent to separate NAD^+ and NAM from other cellular components, NAD^+ and NAM peaks (260 nm absorbance) were collected. Collections were lyophilized to dryness and subjected to MALDI-TOF analysis. For NAD^+ measurement, ratio of intensities for m/z=664 and 666 peaks, corresponding to ^16O- and ^18O-NAD^+ isotopomers, was multiplied by 2.00 nmol and then divided by tissue weight to determine NAD+ concentration in the sample. For NAM the ratio of intensities for m/z=123 and 125 peaks, corresponding to ^16O- and ^18O-NAM isotopomers, was multiplied by 2.00 nmol and then divided by tissue weight to determine NAM concentration in the sample. Corrections were applied for isotopic abundance. Other NAD metabolites were determined as previously described (Yang and Sauve, Synthesis of nictotinamide riboside and derivatives: effective agents for increasing nictinomide adenine dinucleotide concentrations in mammalian cells. J Med Chem 50, 6458-6461 (2006)).

Experiment [2] has as its system SIRT3. The experiment can be described thus: NR in SIRT3−/− mouse embryonic fibroblasts. The format is cell-based. Conditions: 0.5 mM, 24 hrs. As for the experimental part: Cell Culture, Transfection, Adenoviral Infection and Mitochondrial Characterization. HEK293T, MEF and C2C12 cells were cultured in DMEM (4.5 g/l glucose, 10% FCS). PARP-1^+/+ and PARP-1^−/− MEFs were prepared as described in (Menissier-de Murcia et al., 1997). SIRT1 and MEFs were kindly provided by Fred Alt (Chea et al., 2005). SIRT3 MER were established according to standard techniques from conditional SERT3^−/− mice. […] Mitochondrial charge determination was performed as described (Bai et al., 2001) and DNA strand breaks were quantified by TUNEL assays according to the manufacturer's instructions (Millipore).
Immunoprecipitation, SDS-PAGE, Western Blotting. […] Reactions were developed by enhanced chemiluminescence (Amersham, Little Chalfont, UK), PGC-1α, FOXO1 and Ndufa9 acetylation levels were analyzed by immunoprecipitation from cellular or nuclear lysates of tissues with anti-PGC-1α (Millipore), anti-FOXO1 (Cell Signaling, Danvers, Mass., USA) and anti-Ndufa9 (Abcam) antibody followed by Western blot using an acetyl-lysine antibody (Cell Signaling) that was normalized to total PGC-1a/FOXO1/Ndufa9 levels (Lagouge et al., 2006; Rodgers et al., 2005). […] All blots were quantified by densitometry using ImageJ software. […]

As for `CN(C)CC(=O)Nc1ccc2[nH]c(=O)c3ccccc3c2c1` [PJ34], the “intracellular NAD+ at 24 hrs, dose dependence” value in experiment [1] (24 hrs (FIG. 6F)) was “dose dependent manner”. For the same molecule, the “intracellular NAD+ content” value in experiment [1] (24 hrs, 1 mM (FIG. 13B)) was “leads to increased intracellular content”. In addition, the “intracellular NAD+ during H2O2 treatment” value in experiment [1] (H2O2 500 μM, 6 hrs, PJ34 1 μM) is recorded as “prevented the decrease in intracellular NAD^+”. Also, the “H2O2-induced NAD+ depletion” value in experiment [1] (PJ34 24 hrs, H2O2 1 hr (FIG. 13B)) is “global inhibition of PARP activity with PJ34 did”. Moreover, the “intracellular NAD+ over time” value in experiment [1] (PJ34 for the times indicated (FIG. 6D)) was “gradual increase in NAD^+, becoming significant 24 hrs after the initiation of the treatment”.
As for `NC(=O)c1ccc[n+]([C@@H]2O[C@H](CO)[C@@H](O)[C@H]2O)c1` [NR, nicotinamide riboside], in experiment [2], the “NAD+ levels in SIRT3−/− MEFs” value was “increased to similar levels as in SIRT3^+/+ MEFs” and the “acetylation status of SOD2 in SIRT3−/− MEFs” value is “unable to decrease the acetylation status of SOD2”.
